Usually melting point stands for the temperature, or range, at which the solid turns liquid. `Cn1c(=S)n(C)c(=O)n(-c2cc(C(=O)O)c(Cl)cc2F)c1=O` [Compound No. 28, 2-Chloro-5-(3,5-dimethyl-2,6-dioxo-4-thioxo-[1,3,5]triazinan-1-yl)-4-fluorobenzoic acid] returned a melting point of 225 to 229 °C.

Turning to `Cn1c(=S)n(C)c(=O)n(-c2c(F)cc(Cl)c3ncoc23)c1=O` [Compound No. 65, 3-(4-chloro-6-fluorobenzoxazol-7-yl)-1,5-dimethyl-6-thioxo-[1,3,5]triazinane-2,4-dione], the melting point is 209 to 211 °C.

Take `CCc1nc2c(Cl)cc(F)c(-n3c(=O)n(C)c(=S)n(C)c3=O)c2o1` [Compound No. 66, 3-(4-chloro-2-ethyl-6-fluorobenzoxazol-7-yl)-1,5-dimethyl-6-thioxo-[1,3,5]triazinane-2,4-dione]: the melting point lay within 156 to 159 °C.

Source of the values: US6602825B1, “1-Aryl-1,3,5-triazine-4-thione-2,6-diones, production thereof and use thereof as herbicides” (BASF Aktiengesellschaft, priority 2001, dated 2003).
